Common to all, as to type: cell-based
Assay [1] has as its target T1, CDK4-NanoLuc fusion with CCND1 in 293T or 293 cells (Homo sapiens, UniProt P11802).
T1 construct: host or cells: 293T (ATCC CRL-3216) or 293 (ATCC CRL-1573)
The experiment in a line: NanoBRET Target Engagement (TE) Intracellular Kinase Assay, CDK4/CCND1. The conditions noted are these: NanoBRET TE intracellular kinase assay, 2-hour incubation, read-out: NanoBRET-CDK4/D1 IC50. A general note: Bioluminescence resonance energy transfer reports proximity on the nanometre scale.

In assay [2] the target is T2, CDK1-NanoLuc fusion with CCNB1 in 293T or 293 cells (Homo sapiens, UniProt P06493).
T2 construct: host or cells: 293T (ATCC CRL-3216) or 293 (ATCC CRL-1573)
T2 sequence (P06493 whole entry, the tested form may be a part): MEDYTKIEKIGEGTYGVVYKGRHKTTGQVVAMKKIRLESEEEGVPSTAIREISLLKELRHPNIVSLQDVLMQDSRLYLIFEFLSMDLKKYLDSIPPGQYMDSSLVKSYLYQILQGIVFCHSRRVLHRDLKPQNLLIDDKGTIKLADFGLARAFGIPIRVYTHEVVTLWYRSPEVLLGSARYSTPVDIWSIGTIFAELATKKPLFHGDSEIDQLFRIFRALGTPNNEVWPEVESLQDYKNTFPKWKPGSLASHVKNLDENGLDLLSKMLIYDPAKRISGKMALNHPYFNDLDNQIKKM
T2 sequence (P14635 whole entry partner, the tested form may be a part): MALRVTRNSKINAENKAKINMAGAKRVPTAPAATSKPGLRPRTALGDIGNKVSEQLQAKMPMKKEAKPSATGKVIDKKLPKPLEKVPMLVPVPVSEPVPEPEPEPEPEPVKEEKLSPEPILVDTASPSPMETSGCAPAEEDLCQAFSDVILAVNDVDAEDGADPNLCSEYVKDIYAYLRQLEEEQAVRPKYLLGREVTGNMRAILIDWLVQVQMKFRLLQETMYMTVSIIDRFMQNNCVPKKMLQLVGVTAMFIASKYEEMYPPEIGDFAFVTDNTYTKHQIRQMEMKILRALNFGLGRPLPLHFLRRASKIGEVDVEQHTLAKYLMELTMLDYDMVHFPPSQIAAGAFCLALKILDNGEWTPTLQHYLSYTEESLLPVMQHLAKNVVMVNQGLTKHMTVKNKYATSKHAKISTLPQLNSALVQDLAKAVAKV
Put plainly: NanoBRET Target Engagement (TE) Intracellular Kinase Assay, CDK1/CCNB1. The conditions noted are these: NanoBRET TE intracellular kinase assay, 2-hour incubation, read-out: NanoBRET-CDK1/B1 IC50. The method, then:
Inhibitory effects of compounds were measured in NanoBRET TE Intracellular Kinase Assay. 293T (ATCC; CRL-3216) or 293 (ATCC; CRL-1573) cell lines were maintained in 90% DMEM and 10% fetal bovine serum at 37° C., 5% CO2, and 95% relative humidity. Cells were trypsinized and resuspended in assay media (99% Opti-MEM I Reduced Serum Medium, no phenol red, and 1% fetal bovine serum). Cells were co-transfected with 1 μg/mL of CDK-NanoLuc Fusion Vector (Promega; NV2701 for CDK1, NV2781 for CDK2, NV2811 for CDK4, NV2841 for CDK6) and 1 μg/mL of the corresponding Cyclin Expression Vector (Promega; NV2601 for CCNB1, NV2641 for CCNE1, NV2621 for CCND1, NV2631 for CCND3) using FuGENE HD Transfection Reagent (Promega; E2311). 40 uL/well of cells with transfection mixture were seeded in 384-well plates at 1.25×10^5 to 2×10^5 cells/mL and incubated for 24 hours at 37° C., 5% CO2, and 95% relative humidity. On the next day, 100 nL of 100 μM NanoBRET Tracer K-10 (Promega; N2640) and 40 nL of 1000× test compounds prepared in DMSO were added to the cells in each well of 384-well plates for a 2-hour incubation at 37° C., 5% CO2, and 95% relative humidity. 20 uL/well of 3× Intracellular TE Nano-Glo Substrate/Inhibitor (Promega; N2162) were added to 384-well plates and incubated for 3 minutes at room temperature. NanoBRET signals (donor emission wavelength at 450 nm, acceptor emission wavelength at 610 nm) were measured using Envision plate reader (PerkinElmer). NanoBRET ratio was calculated by: BRET Ratio=raw signal for acceptor/raw signal for donor. Dose response curve normalized to DMSO control was plotted using four-parameter logistic model for IC50 calculation.

Assay [3] has as its system Phospho-Rb Ser807/811 in OVCAR3 cells. The experiment in a line: OVCAR3 Phospho-Rb Ser807/811 HTRF assay. Particulars: Homo sapiens, read-out: pRb-OVCAR3 IC50. The method, then: Cells were trypsinized and resuspended in 1 mM hydroxyurea (Sigma; H8627), 90% RPMI and 10% fetal bovine serum. […] Dose response curve normalized to DMSO control was plotted using four-parameter logistic model for IC50 calculation.
(In general: In TR-FRET formats the signal depends on donor and acceptor labels being close together.)

Assay [4] addresses T3, CDK2-NanoLuc fusion with CCNE1 in 293T or 293 cells (Homo sapiens, UniProt P24941).
T3 construct: host or cells: 293T (ATCC CRL-3216) or 293 (ATCC CRL-1573)
Put plainly: NanoBRET Target Engagement (TE) Intracellular Kinase Assay, CDK2/CCNE1. Particulars: NanoBRET TE intracellular kinase assay, 2-hour incubation, read-out: NanoBRET-CDK2/E1 IC50.

[5] abbreviates: OVCAR-3, 1 h, OVCAR3 cells, Phospho-Rb Ser807/811 HTRF, 1 hour incubation.

Where two headings read alike, the source gives them in different places.

T1 sequence (P11802 whole entry, the tested form may be a part): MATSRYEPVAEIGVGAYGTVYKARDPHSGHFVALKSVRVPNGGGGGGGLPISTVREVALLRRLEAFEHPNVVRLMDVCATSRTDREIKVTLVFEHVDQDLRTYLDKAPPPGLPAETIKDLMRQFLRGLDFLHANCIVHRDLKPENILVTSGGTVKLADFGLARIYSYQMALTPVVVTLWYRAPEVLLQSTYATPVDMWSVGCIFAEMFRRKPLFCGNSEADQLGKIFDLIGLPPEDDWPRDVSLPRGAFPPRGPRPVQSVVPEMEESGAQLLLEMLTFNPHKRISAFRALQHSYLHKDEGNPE
T1 sequence (P24385 whole entry partner, the tested form may be a part): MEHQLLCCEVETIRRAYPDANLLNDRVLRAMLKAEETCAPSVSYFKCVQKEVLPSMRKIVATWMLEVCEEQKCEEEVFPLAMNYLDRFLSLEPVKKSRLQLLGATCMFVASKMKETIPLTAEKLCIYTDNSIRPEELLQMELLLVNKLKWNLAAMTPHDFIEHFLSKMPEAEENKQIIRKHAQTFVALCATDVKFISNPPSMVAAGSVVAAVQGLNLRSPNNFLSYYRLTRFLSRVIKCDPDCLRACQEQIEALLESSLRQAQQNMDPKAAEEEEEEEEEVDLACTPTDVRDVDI

For the molecule `CC(C)NC(=O)O[C@@H]1CC[C@H](c2cc(NC(=O)[C@H]3C[C@H](Oc4cccc(O)c4C=O)C3)n[nH]2)C1` (single isomer, unassigned) [Compound 1], the IC50 came out at 1800 nM in assay [1], 62.9 nM in assay [2], 274 nM in assay [3] (setting [5]) and 7.87 nM in assay [4].

`CC(C)NC(=O)O[C@@H]1CC[C@H](c2cc(NC(=O)[C@H]3C[C@@H]3c3cccc(O)c3C=O)n[nH]2)C1` (single isomer, unassigned) [Compound 10]: the IC50 is 1000 nM in assay [1], 11.3 nM in assay [2], 67.6 nM in assay [3] (setting [5]) and 6.04 nM in assay [4].

Regarding `COc1cc(O)c(C=O)c([C@H]2C[C@@H]2C(=O)Nc2cc([C@H]3CC[C@@H](OC(=O)NC(C)C)C3)[nH]n2)c1` (single isomer, unassigned) [Compound 90], the IC50 in assay [1] worked out at 5100 nM; in assay [2] it was 213 nM; in assay [3] (setting [5]) it was 761 nM; in assay [4], 43.8 nM.

Regarding `CC(C)NC(=O)O[C@@H]1CC[C@H](c2cc(NC(=O)[C@H]3C[C@@H](Oc4cccc(O)c4C=O)C3)n[nH]2)C1` (single isomer, unassigned) [Compound 94], the IC50 was 1310 nM in assay [1], 165 nM in assay [2], 1440 nM in assay [3] (setting [5]) and 9.73 nM in assay [4].

Turning to `CC(C)NC(=O)O[C@@H]1CC[C@H](c2cc(NC(=O)C3C[C@H]3c3cccc(O)c3C=O)n[nH]2)C1` (stereo in doubt) [Compound 9, (1R,3S)-3-{5-[(1R,2R)-2-(2-formyl-3-hydroxyphenyl)cyclopropaneamido]-2H-pyrazol-3-yl}cyclopentyl N-isopropylcarbamate], the IC50 came to 4700 nM in assay [1], 50.3 nM in assay [2], 449 nM in assay [3] (setting [5]) and 29.2 nM in assay [4].

With `COCC1(NC(=O)O[C@@H]2CC[C@H](c3cc(NC(=O)COc4cc(OC)cc(O)c4C=O)n[nH]3)C2)CCC1` (stereo in doubt) [Compound 198], the IC50 in assay [1] is 3220 nM; in assay [2], 7 nM; in assay [3] (setting [5]), 38.7 nM; in assay [4], 1.92 nM.

In the case of `CC(C)NC(=O)O[C@@H]1CC[C@H](c2cc(NC(=O)c3ccc(C=O)c(O)c3)n[nH]2)C1` [Compound 2, (1R,3S)-3-[5-(4-formyl-3-hydroxybenzamido)-2H-pyrazol-3-yl]cyclopentyl N-isopropylcarbamate; trifluoroacetic acid], the IC50 was found to be 89.5 nM in assay [1], 3.45 nM in assay [2], 68 nM in assay [3] (setting [5]) and 3.82 nM in assay [4].

On to `CC(C)NC(=O)O[C@@H]1CC[C@H](c2cc(NC(=O)c3ccc(O)c(C=O)c3)n[nH]2)C1` [Compound 3, (1R,3S)-3-(3-(3-formyl-4-hydroxybenzamido)-1H-pyrazol-5-yl)cyclopentyl isopropylcarbamate trifluoroacetic acid], for which the IC50 is 255 nM in assay [1], 32.8 nM in assay [2], 129 nM in assay [3] (setting [5]) and 9.48 nM in assay [4].

Regarding `CC(C)NC(=O)O[C@@H]1CC[C@H](c2cc(NC(=O)Cc3ccc(C=O)c(O)c3)n[nH]2)C1` [Compound 4, (1R,3S)-3-{5-[2-(4-formyl-3-hydroxyphenyl)acetamido]-2H-pyrazol-3-yl}cyclopentyl N-isopropylcarbamate], the IC50 in assay [1] is 6.91 nM; in assay [2], 7.08 nM; in assay [3] (setting [5]), 68.8 nM; in assay [4], 5.47 nM.

With `CC(C)NC(=O)O[C@@H]1CC[C@H](c2cc(NC(=O)Cc3ccc(O)c(C=O)c3)n[nH]2)C1` [Compound 5, (1R,3S)-3-{5-[2-(3-formyl-4-hydroxyphenyl)acetamido]-2H-pyrazol-3-yl}cyclopentyl N-isopropylcarbamate], the IC50 in assay [1] came out at 52.6 nM; in assay [2], 5.54 nM; in assay [3] (OVCAR-3, 1 h) it was 187 nM; in assay [4] it was 6.58 nM.

In the case of `CC(C)NC(=O)O[C@@H]1CC[C@H](c2cc(NC(=O)CCc3ccc(O)c(C=O)c3)n[nH]2)C1` [Compound 6, (1R,3S)-3-{5-[3-(3-formyl-4-hydroxyphenyl)propan-amido]-2H-pyrazol-3-yl}cyclopentyl N-isopropylcarbamate; trifluoroacetic acid], the IC50 in assay [1] was 397 nM; in assay [2], 113 nM; in assay [3] (OVCAR-3, OVCAR3 cells, Phospho-Rb Ser807/811 HTRF, 1 hour incubation), 618 nM; in assay [4], 12.5 nM.

Turning to `CC(C)NC(=O)O[C@@H]1CC[C@H](c2cc(NC(=O)CCCc3cccc(O)c3C=O)n[nH]2)C1` [Compound 12, 1R,3S)-3-(3-(4-(2-formyl-3-hydroxyphenyl)butanamido)-1H-pyrazol-5-yl)cyclopentyl isopropylcarbamate], the IC50 worked out at 1450 nM in assay [1], 126 nM in assay [2] and 11.1 nM in assay [4].

Consider `CC(C)NC(=O)O[C@@H]1CC[C@H](c2cc(NC(=O)[C@@H]3Cc4ccc(O)c(C=O)c4C3)n[nH]2)C1` [Compound 26, (1R,3S)-3-{5-[(2R)-4-formyl-5-hydroxy-2,3-dihydro-1H-indene-2-amido]-2H-pyrazol-3-yl}cyclopentyl N-isopropylcarbamate], for which the values for the IC50 in assay [2], in assay [3] (setting [5]) and in assay [4] were 21.7 nM, 94.5 nM and 2.78 nM, respectively.

For `CC(C)NC(=O)O[C@@H]1CC[C@H](c2cc(NC(=O)[C@@H]3Cc4ccc(O)c(C=O)c4C3)n[nH]2)C1` [Compound 256], the figures for the IC50 in assay [2], in assay [3] (setting [5]) and in assay [4] were 20.3 nM, 68.9 nM and 3.76 nM, respectively.

`CC(C)NC(=O)O[C@@H]1CC[C@H](c2cc(NC(=O)CNc3cccc(O)c3C=O)n[nH]2)C1` [Compound 259]: the IC50 in assay [1] is over 10000 nM; in assay [2] it was 8060 nM; in assay [4], 649 nM.

Regarding `CCN(NC)C(=O)O[C@@H]1CC[C@H](c2cc(NC(=O)COc3cc(OC)cc(O)c3C=O)n[nH]2)C1` [Compound 275, (1R,3S)-3-(3-(2-(2-formyl-3-hydroxy-5-methoxyphenoxy)acetamido)-1H-pyrazol-5-yl)cyclopentyl 1-ethyl-2-methylhydrazine-1-carboxylate], the IC50 in assay [1] came out at 5300 nM; in assay [3] (setting [5]), 35.7 nM; in assay [4] it was 3.11 nM.

`CCNN(C)C(=O)O[C@@H]1CC[C@H](c2cc(NC(=O)COc3cc(OC)cc(O)c3C=O)n[nH]2)C1` [Compound 276, (1R,3S)-3-(3-(2-(2-formyl-3-hydroxy-5-methoxyphenoxy)acetamido)-1H-pyrazol-5-yl)cyclopentyl 2-ethyl-1-methylhydrazine-1-carboxylate]: the values for the IC50 in assay [1], in assay [3] (setting [5]) and in assay [4] were over 10000 nM, 31.6 nM and 5.09 nM, respectively.

As for `CCN(CC)N(C)C(=O)O[C@@H]1CC[C@H](c2cc(NC(=O)COc3cc(OC)cc(O)c3C=O)n[nH]2)C1` [Compound 277, (1R,3S)-3-(3-(2-(2-formyl-3-hydroxy-5-methoxyphenoxy)acetamido)-1H-pyrazol-5-yl)cyclopentyl 2,2-diethyl-1-methylhydrazine-1-carboxylate], the IC50 in assay [1] worked out at 5090 nM; in assay [3] (setting [5]) it was 25.6 nM; in assay [4], 1.48 nM.

With `COc1cc(O)c(C=O)c(OCC(=O)Nc2cc([C@H]3CC[C@@H](OC(=O)N4CCCN4C)C3)[nH]n2)c1` [Compound 278, (1R,3S)-3-(3-(2-(2-formyl-3-hydroxy-5-methoxyphenoxy)acetamido)-1H-pyrazol-5-yl)cyclopentyl 2-methylpyrazolidine-1-carboxylate], the IC50 in assay [1] is over 10000 nM; in assay [3] (setting [5]) it was 95.9 nM; in assay [4] it was 4.1 nM.

With `CNN(C)C(=O)O[C@@H]1CC[C@H](c2cc(NC(=O)COc3cc(OC)cc(O)c3C=O)n[nH]2)C1` [Compound 279, (1R,3S)-3-(3-(2-(2-formyl-3-hydroxy-5-methoxyphenoxy)acetamido)-1H-pyrazol-5-yl)cyclopentyl 1,2-dimethylhydrazine-1-carboxylate], the IC50 in assay [1] is over 10000 nM; in assay [3] (setting [5]) it was 63.9 nM; in assay [4], 4.32 nM.

These data come from US20250289789A1, “REVERSIBLE LYSINE COVALENT MODIFIERS OF CDK2 AND USES THEREOF” (Terremoto Biosciences, Inc., priority 2023, published 2025).
